Experimental data taken from patent publication US8124784B2, “Palladium metal complex” (Nagasaki University, priority 2008, dated 2012).

Test: Solubility of the metal complex A in organic solvents
Format: physicochemical
Experimental: The solubility of the metal complex A in organic solvents was tested.

solubility in organic solvent (acetone): insoluble | solubility in organic solvent (acetonitrile): insoluble | solubility in organic solvent (benzene): slightly soluble | solubility in organic solvent (chloroform): soluble | solubility in organic solvent (diethyl ether): insoluble | solubility in organic solvent (ethanol): insoluble | solubility in organic solvent (hexane): insoluble | solubility in organic solvent (methanol): insoluble | solubility in organic solvent (methylene chloride): soluble | solubility in organic solvent (toluene): slightly soluble
Substance: [Pd2Au2Cl2(μ-dmpz)4(dmpzH)2] [metal complex A]
